These results are taken from patent publication US12631620B2, “Methods of generating organoids for high throughput screening of drugs” (Yissum Research Development Company of the Hebrew …, priority 2019, dated 2026).

SMILES strings stand for the structures. Where “and” joins values, the source holds several entries; their conditions need not be identical. Identical values can stand only once.

The test system of series [1] is HepG2/C3A organoids. As to the kind of experiment: Real-time oxygen uptake toxicity (TC50, time to onset, lowest exposure level) in differentiated HepG2/C3A organoids. It is filed as cell-based, human. Particulars: for TC50: oxygen uptake. As for the experimental part: A suspension of HepG2/C3A cells and CPOx-50-RuP beads (Colibri Photonics, Germany) were suspended in 2.5 mg/ml rat tail collagen type I (Corning, USA) at a cell density of 7×10^5 cells/μl. A volume of 1.1 μl of the gel-imbedded mixture was injected into each microwell and left to form spontaneously until their metabolic activity stabilized around day 4.
Fifty-micrometer-diameter polystyrene microbeads were loaded with ruthenium-phenanthroline-based phosphorescence dye (CPOx-50-RuP). […] Oxygen acts as a quencher, leading to a decrease in decay time and signal intensity with increasing concentration. The present inventors chose to measure decay time, rather than signal intensity, as it is not sensitive to changes in probe concentration or excitation intensity over the course of the experiment. The signal was measured using the OPAL system (Colibri Photonics, Germany) that comprises of a control module, 532 nm LED excitation source, and a photomultiplier (PMT) detector mounted on the ocular of an IX81 Olympus microscope (Olympus, Japan). A filter cube with 531/40 (Ex), 555, 607/70 (Em) was inserted in the optical light path during measurements. To accurately measure decay time, the present inventors chose phase modulation in which sinusoidal amplitude-modulated light is shifted in phase due to oxygen quenching. To overcome the superposition of in-phase background fluorescence that alters the phase of the detected signal, the present inventors used a novel 53.5 and 31.3 kHz two-frequency phase modulation that allowed to screen out the interference [Schmalzlin E., et al., 2005. Biophysical journal, 89: 1339-1345; Papkovsky, D. B. et al., 2004. Methods in enzymology, 381, 715-735; Ast, C., et al., 2012. Sensors (Basel), 12: 7015-7032; Engelhard, S., et al., 2006. Analytical and bioanalytical chemistry, 384: 1107-1112; Prill, D. et al., 2016, Archives of toxicology, 90: 1181-1191]. Measurements were carried out by averaging five consecutive 4-s exposures. Measurements were taken every 15 minutes. Under similar conditions, 28 days of measurement of organoids was done with no apparent phototoxicity, signal drift, or relevant loss of signal intensity (Schmalzlin E., et al., 2005. Biophysical journal, 89: 1339-1345). Assessment of Cellular Toxicity and Time to Onset
Organoids were exposed to different concentrations of compounds dissolved in culture medium. Cell viability was determined by oxygen uptake following 24 hours of exposure unless otherwise noted. TC50 concentrations were determined using MATLAB by sigmoidal curve fitting (Wenner, M. M. et al., 2011, J Appl Physiol (1985), 111: 1703-1709; Prentice, R. L. et al., 1976, Biometrics, 32: 761-768). Time to onset was analyzed by MATLAB based on LPF and trend assessment.
To find the asymptotic concentration for which damage occurs only at infinite exposure time, the present inventors used a previously developed model for accumulative drug exposure (El-Kareh et al., 2000. Neoplasia, 2: 325-338; Currie, G. M. 2018. J Nucl Med Technol, DOI: 10.2967/jnmt.117.199588). The model is based on the steady-state dynamics of flux accumulation, using a linear first-order approximation of the cell membrane. The flux behavior is described by
where J(C) is the concentration dependent flux, Jmin is the minimal flux that will cause an effect, t is time of exposure and |τ is a drug-cell specific constant accounting reaction dynamics (Gowrishankar et al., 2003. Proceedings of the National Academy of Sciences of the United States of America, 100: 3203-3208; Kotnik T. et al., 2000. IEEE Trans Biomed Eng, 47: 1074-1081). In the present case, t is the Time to Onset (TTO) of damage creating a bi-asymptotic behavior. This adapted model is used to describe lowest exposure level (LEL) under first order, steady state assumptions, as
Real-time oxygen measurements were performed optically using on-chip lifetime-based luminescence quenching (LBLQ). […]

In series [2] the test system is HepG2/C3A organoids. As to the kind of experiment: Neutral lipid and phospholipid staining of HepG2/C3A organoids on chip. Particulars: p<0.001, n=9. It is filed as cell-based, human.
In a further series the test system is E6/E7^LOW hepatocytes. The protocol: According to some embodiments of the invention there is a sensor-integrated liver on chip array in which oxygen is monitored using two-frequency phase modulation of tissue-embedded phosphorescent microprobes, while glucose, lactate and temperature are measured in real time using microfluidic electrochemical sensors. Such a microphysiological platform permits the calculation of dynamic changes in metabolic fluxes around central carbon metabolism, producing a unique metabolic fingerprint of the liver's response to stimuli.

For series [3] the following is noted: patients on therapy; cited from earlier work.

In the series with HepG2/C3A organoids [1] (at 24 hours), `Cc1cn([C@H]2C=C[C@@H](CO)O2)c(=O)[nH]c1=O` [Stavudine] yielded a TC50 of 4300 µM. In addition, the TC50 in the series on HepG2/C3A organoids [1] (at 42 hours) was 1700 µM and 1700 ± 400 µM. The “Time to onset (TTO) of response” value in the series on HepG2/C3A organoids [1] (dose-dependent range over concentrations tested) lay in the range of 10 to 29 h. Further, in the series with HepG2/C3A organoids [1] (horizontal asymptote, onset of damage at infinite time, ± standard error of curve fit), the “lowest exposure level (LEL)” value came out at 4 ± 1 µM. In addition, the “increase in the amount of intracellular lipids” value in the series with HepG2/C3A organoids [2] was 3 fold. Moreover, in the series with E6/E7^LOW hepatocytes, the ATP production result is given as “relatively unchanged”; the direct mitochondrial damage result is given as “no indication of direct mitochondrial damage”; the “metabolic fluxes (lipogenesis, glycolysis)” value was “transient increase in lipogenesis followed by global suppression of both glycolysis and lipogenesis”. This molecule also came in with an increase in lipogenesis in the series on E6/E7^LOW hepatocytes (flux balance analysis, below threshold of cellular damage, Valproate sustained, Stavudine transient) of 5%. Further, the “time to onset of slow progressive damage post-exposure” value in the series on E6/E7^LOW hepatocytes (human) lay within 15 to 20 h. Moreover, the “patients with elevated liver enzymes” value in series [3] is reported as 30%.
